Test results from patent US20180139962A1, “FUNGICIDAL N-CYCLOALKYL-N-{[ORTHO-(1-SUBSTITUTED-CYCLOALKYL)HETEROARYL]METHYL}PYRAZOLE(THIO)CARBOXAMIDS” (Bayer CropScience Aktiengesellschaft, priority 2015, published 2018).
“And” between values parts separate entries of the source, which are not always exact repeats. Equal values may be shown once.

Test system: not listed separately
Assay: log P determination by HPLC on reversed-phase column (C 18), EEC Directive 79/831 Annex V.A8
Format: physicochemical
Settings: C 18 reversed phase, 40° C., 0.1% aqueous formic acid and acetonitrile, linear gradient 10% to 90% acetonitrile
Protocol: In table 1, the log P values were determined in accordance with EEC Directive 79/831 Annex V.A8 by HPLC (High Performance Liquid Chromatography) on a reversed-phase column (C 18), using the method described below: Temperature: 40° C.; Mobile phases: 0.1% aqueous formic acid and acetonitrile; linear gradient from 10% acetonitrile to 90% acetonitrile. Calibration was carried out using unbranched alkan-2-ones (comprising 3 to 16 carbon atoms) with known log P values (determination of the log P values by the retention times using linear interpolation between two successive alkanones). lambda-max-values were determined using UV-spectra from 200 nm to 400 nm and the peak values of the chromatographic signals.

**Q.** For `Cn1nc(C(F)F)c(C(=O)N(Cc2sc(Br)cc2C2(Cl)CC2)C2CC2)c1F` [I.18], which logP is on record?
**A.** 4.15

**Q.** Which logP does the source give for `Cc1cnc(C2(C)CC2)c(CN(C(=O)c2c(C(F)F)nn(C)c2F)C2CC2)c1` [I.05] here?
**A.** 1.42

**Q.** With `Cn1nc(C(F)F)c(C(=S)N(Cc2cc(Cl)cnc2C2(C)CC2)C2CC2)c1F` [I.23] as the compound, how does the logP read?
**A.** 3.52

**Q.** Which logP does the source give for `Cn1nc(C(F)F)c(C(=O)N(Cc2cccnc2C2(C)CC2)C2CC2)c1Cl` [I.02] here?
**A.** 1.41

**Q.** Which logP does the source give for `Cc1cnc(C2(C)CC2)c(CN(C(=S)c2c(C(F)F)nn(C)c2F)C2CC2)c1` [I.22] here?
**A.** 1.59

**Q.** Which logP does the source give for `Cn1nc(C(F)F)c(C(=O)N(Cc2sccc2C2(Cl)CC2)C2CC2)c1F` [I.13] here?
**A.** 3.37

**Q.** Which logP does the source give for `Cn1nc(C(F)F)c(C(=O)N(Cc2sccc2C2(C)CC2)C2CC2)c1F` [I.09] here?
**A.** 3.70

**Q.** With `Cn1nc(C(F)F)c(C(=S)N(Cc2cc(Cl)cnc2C2(C)CC2)C2CC2)c1Cl` [I.24] as the compound, how does the logP read?
**A.** 3.71

**Q.** Which logP does the source give for `Cn1nc(C(F)F)c(C(=O)N(Cc2cc(Br)cnc2C2(C)CC2)C2CC2)c1Cl` [I.07] here?
**A.** 3.12

**Q.** Which logP does the source give for `Cc1cc(C2(C)CC2)c(CN(C(=O)c2c(C(F)F)nn(C)c2Cl)C2CC2)s1` [I.12] here?
**A.** 4.27

**Q.** For `Cn1nc(C(F)F)c(C(=S)N(Cc2sccc2C2(Cl)CC2)C2CC2)c1Cl` [I.25], which logP is on record?
**A.** 4.19

**Q.** Which logP does the source give for `Cn1nc(C(F)F)c(C(=O)N(Cc2cc(-c3ccsc3)cnc2C2(C)CC2)C2CC2)c1F` [I.30] here?
**A.** 2.12

**Q.** With `Cn1nc(C(F)F)c(C(=O)N(Cc2cc(Cl)cnc2C2(C)CC2)C2CC2)c1Cl` [I.04] as the compound, how does the logP read?
**A.** 3.09

**Q.** Which logP does the source give for `Cn1nc(C(F)F)c(C(=O)N(Cc2cc(C3=CCCC3)cnc2C2(C)CC2)C2CC2)c1F` [I.29] here?
**A.** 2.05

**Q.** Which logP does the source give for `C=Cc1cnc(C2(C)CC2)c(CN(C(=O)c2c(C(F)F)nn(C)c2Cl)C2CC2)c1` [I.32] here?
**A.** 1.91

**Q.** Which logP does the source give for `Cn1nc(C(F)F)c(C(=S)N(Cc2sccc2C2(C)CC2)C2CC2)c1Cl` [I.27] here?
**A.** 4.44

**Q.** With `Cn1nc(C(F)F)c(C(=S)N(Cc2sccc2C2(C)CC2)C2CC2)c1F` [I.28] as the compound, how does the logP read?
**A.** 4.28

**Q.** With `Cc1cc(C2(C)CC2)c(CN(C(=O)c2c(C(F)F)nn(C)c2F)C2CC2)s1` [I.11] as the compound, how does the logP read?
**A.** 4.13

**Q.** For `Cn1nc(C(F)F)c(C(=S)N(Cc2cccnc2C2(C)CC2)C2CC2)c1Cl` [I.19], which logP is on record?
**A.** 1.63

**Q.** With `Cn1nc(C(F)F)c(C(=O)N(Cc2cc(Cl)cnc2C2(C)CC2)C2CC2)c1F` [I.03] as the compound, how does the logP read?
**A.** 2.88

**Q.** With `Cn1nc(C(F)F)c(C(=O)N(Cc2cc(Br)cnc2C2(C)CC2)C2CC2)c1F` [I.08] as the compound, how does the logP read?
**A.** 2.91

**Q.** For `Cc1cc(C2(Cl)CC2)c(CN(C(=S)c2c(C(F)F)nn(C)c2Cl)C2CC2)s1` [I.26], which logP is on record?
**A.** 4.56

**Q.** Which logP does the source give for `Cn1nc(C(F)F)c(C(=S)N(Cc2cccnc2C2(C)CC2)C2CC2)c1F` [I.20] here?
**A.** 1.53

**Q.** Which logP does the source give for `Cc1cnc(C2(C)CC2)c(CN(C(=S)c2c(C(F)F)nn(C)c2Cl)C2CC2)c1` [I.21] here?
**A.** 1.69

**Q.** With `Cc1cnc(C2(C)CC2)c(CN(C(=O)c2c(C(F)F)nn(C)c2Cl)C2CC2)c1` [I.06] as the compound, how does the logP read?
**A.** 1.54

**Q.** Which logP does the source give for `Cn1nc(C(F)F)c(C(=O)N(Cc2sccc2C2(Cl)CC2)C2CC2)c1Cl` [I.14] here?
**A.** 3.55

**Q.** For `Cn1nc(C(F)F)c(C(=O)N(Cc2cccnc2C2(C)CC2)C2CC2)c1F` [I.01], which logP is on record?
**A.** 1.28

**Q.** Which logP does the source give for `COC1(c2cc(C)sc2CN(C(=O)c2c(C(F)F)nn(C)c2F)C2CC2)CC1` [I.17] here?
**A.** 3.37

**Q.** With `Cc1cc(C2(Cl)CC2)c(CN(C(=O)c2c(C(F)F)nn(C)c2Cl)C2CC2)s1` [I.16] as the compound, how does the logP read?
**A.** 3.92

**Q.** With `Cn1nc(C(F)F)c(C(=O)N(Cc2cc(-c3ccccc3)cnc2C2(C)CC2)C2CC2)c1Cl` [I.31] as the compound, how does the logP read?
**A.** 2.33

**Q.** Which logP does the source give for `Cn1nc(C(F)F)c(C(=O)N(Cc2sccc2C2(C)CC2)C2CC2)c1Cl` [I.10] here?
**A.** 3.85

Same assay, conditions: reversed-phase C18 HPLC column, C 18 reversed phase, 40° C., 0.1% aqueous formic acid and acetonitrile, linear gradient 10% to 90% acetonitrile

**Q.** With `ClC1(c2ccsc2CNC2CC2)CC1` [IIa.02, N-{[3-(1-chlorocyclopropyl)-2-thienyl]methyl}cyclopropanamine] as the compound, how does the chromatographic logP read?
**A.** 0.87

**Q.** For `CC1(c2ccsc2CBr)CC1` [Va1.01, 2-(bromomethyl)-3-(1-methylcyclopropyl)thiophene], which chromatographic logP is on record?
**A.** 2.14

**Q.** With `Cc1cc(C2(Cl)CC2)c(CNC2CC2)s1` [IIa.03, N-{[3-(1-chlorocyclopropyl)-5-methyl-2-thienyl]methyl}cyclopropanamine] as the compound, how does the chromatographic logP read?
**A.** 1.2

**Q.** With `O=Cc1sccc1C1(Cl)CC1` [IV.01, 3-(1-chlorocyclopropyl)thiophene-2-carbaldehyde] as the compound, how does the chromatographic logP read?
**A.** 2.41

**Q.** With `Cc1cc(C2(Cl)CC2)c(C=O)s1` [IV.02, 3-(1-chlorocyclopropyl)-5-methylthiophene-2-carbaldehyde] as the compound, how does the chromatographic logP read?
**A.** 2.75

**Q.** With `Cc1cc(C2(C)CC2)c(CBr)s1` [Va1.02, 2-(bromomethyl)-5-methyl-3-(1-methylcyclopropyl)thiophene] as the compound, how does the chromatographic logP read?
**A.** 2.54

**Q.** Which chromatographic logP does the source give for `CC1(c2ccsc2CO)CC1` [Vc.01, [3-(1-methylcyclopropyl)-2-thienyl]methanol] here?
**A.** 2.09

**Q.** With `Cc1cc(C2(Cl)CC2)c(CN(C(=O)c2c(C(F)F)nn(C)c2F)C2CC2)s1` [I.15, N-{[3-(1-chlorocyclopropyl)-5-methyl-2-thienyl]methyl}-N-cyclopropyl-3-(difluoromethyl)-5-fluoro-1-methyl-1H-pyrazole-4-carboxamide] as the compound, how does the chromatographic logP read?
**A.** 3.76

**Q.** Which chromatographic logP does the source give for `CC1(c2ccsc2CNC2CC2)CC1` [IIa.01, N-{[3-(1-methylcyclopropyl)-2-thienyl]methyl}cyclopropanamine] here?
**A.** 0.7

**Q.** For `Cc1cc(C2(C)CC2)c(CO)s1` [Vc.02, [5-methyl-3-(1-methylcyclopropyl)-2-thienyl]methanol], which chromatographic logP is on record?
**A.** 2.52

**Q.** With `COC1(c2cc(C)sc2CNC2CC2)CC1` [IIa.04, N-{[3-(1-methoxycyclopropyl)-5-methyl-2-thienyl]methyl}cyclopropanamine] as the compound, how does the chromatographic logP read?
**A.** 1.07

**Q.** For `N#CC1(c2ccsc2CO)CC1` [Vc.03, 1-[2-(hydroxymethyl)-3-thienyl]cyclopropanecarbonitrile], which chromatographic logP is on record?
**A.** 0.63

Test system: Uromyces appendiculatus
Assay: In vivo preventive test on Uromyces appendiculatus (bean rust)
Settings: Table B2, dose 100 ppm, bean plants, comparison with isopropyl analogues of WO2012/059497
Protocol: EXAMPLE B: IN VIVO PREVENTIVE TEST ON UROMYCES APPENDICULATUS (BEAN RUST) Solvent: 5% by volume of Dimethyl sulfoxide • 10% by volume of Acetone Emulsifier: 1 μL of Tween® 80 per mg of active ingredient The active ingredients are made soluble and homogenized in a mixture of Dimethyl sulfoxide/Acetone//Tween® 80 and then diluted in water to the desired concentration. The young plants of bean are treated by spraying the active ingredient prepared as described above. Control plants are treated only with an aqueous solution of Acetone/Dimethyl sulfoxide/Tween® 80. After 24 hours, the plants are contaminated by spraying the leaves with an aqueous suspension of Uromyces appendiculatus spores. The contaminated bean plants are incubated for 24 hours at 20° C. and at 100% relative humidity and then for 10 days at 20° C. and at 70-80% relative humidity. The test is evaluated 11 days after the inoculation. 0% means an efficacy which corresponds to that of the control plants while an efficacy of 100% means that no disease is observed.

**Q.** For `Cc1cc(C(C)C)c(CN(C(=O)c2c(C(F)F)nn(C)c2Cl)C2CC2)s1` [CMP2, 5-chloro-N-cyclopropyl-3-(difluoromethyl)-N-[(3-isopropyl-5-methyl-2-thienyl)methyl]-1-methyl-1H-pyrazole-4-carboxamide, reference compound], which Efficacy is on record?
**A.** 0%

**Q.** For `Cc1cc(C2(C)CC2)c(CN(C(=O)c2c(C(F)F)nn(C)c2Cl)C2CC2)s1` [I.12], which Efficacy is on record?
**A.** 100% and 92%

**Q.** For `Cc1cc(C(C)C)c(CN(C(=O)c2c(C(F)F)nn(C)c2F)C2CC2)s1` [CMP1, N-cyclopropyl-3-(difluoromethyl)-5-fluoro-N-[(3-isopropyl-5-methyl-2-thienyl)methyl]-1-methyl-1H-pyrazole-4-carboxamide, reference compound], which Efficacy is on record?
**A.** 65%

**Q.** Which Efficacy does the source give for `Cc1cc(C2(C)CC2)c(CN(C(=O)c2c(C(F)F)nn(C)c2F)C2CC2)s1` [I.11] here?
**A.** 100%
